Data as given in ChEMBL document CHEMBL1145059, “Bispyridinium cyclophanes: novel templates for human choline kinase inhibitors” (J Med Chem, 2003).

Assays:
[1] = molecular target: Choline kinase alpha (Homo sapiens, UniProt P35790); experiment: Ex vivo inhibitory activity against human choline kinase was determined
[2] = test system: HT-29; experiment: In vitro inhibition of proliferation in ras transformed cells on the HT-29 (Human tumor) cell line; format: functional, cell-based

Choline kinase alpha, sequence (P35790 whole entry): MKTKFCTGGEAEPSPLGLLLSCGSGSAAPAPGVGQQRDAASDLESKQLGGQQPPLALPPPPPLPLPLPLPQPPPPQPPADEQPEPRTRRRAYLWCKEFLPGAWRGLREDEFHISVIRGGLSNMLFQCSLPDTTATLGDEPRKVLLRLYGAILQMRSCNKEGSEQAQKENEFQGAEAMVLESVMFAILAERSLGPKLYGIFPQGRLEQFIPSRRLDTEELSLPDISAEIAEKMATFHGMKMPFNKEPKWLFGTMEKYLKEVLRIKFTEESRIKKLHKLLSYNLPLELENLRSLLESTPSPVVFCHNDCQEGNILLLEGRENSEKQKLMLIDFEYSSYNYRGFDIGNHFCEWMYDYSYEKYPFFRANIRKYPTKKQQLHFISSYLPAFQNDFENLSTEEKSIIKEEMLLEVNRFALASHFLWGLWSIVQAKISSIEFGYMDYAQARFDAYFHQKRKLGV

Row | IC50 [1] [µM] | IC50 [2] [µM] | Compound
1 | 13.2 | > 100 | c1cc2cc(c1)CNc1cc[n+](cc1)Cc1cccc(c1)C[n+]1ccc(cc1)NC2
2 | 0.3 | 28.8 | c1cc2cc(c1)CNc1cc[n+](cc1)Cc1ccc(cc1)C[n+]1ccc(cc1)NC2
3 | 2.1 | 36.9 | c1cc2ccc1CNc1cc[n+](cc1)Cc1ccc(cc1)C[n+]1ccc(cc1)NC2
4 | 1.4 | – | CN(c1ccc(Cl)cc1)c1cc[n+](Cc2cc(C[n+]3ccc(N(C)c4ccc(Cl)cc4)cc3)cc(C[n+]3ccc(N(C)c4ccc(Cl)cc4)cc3)c2)cc1
5 | 24.8 | 58.6 | c1cc2cc(c1)C[n+]1ccc(cc1)NCc1ccc(cc1)CNc1cc[n+](cc1)C2
